Assay results as given in US20010004643A1, “Pharmaceutical composition with sotalol combination and their use in treatment of cardiac ailments” (priority 1999, published 2001).
“Also recorded” adds a separate entry of the source. Marks after values point to notes of the source that are not given here.

What was measured:
[1] = test system: ouabain induced arrhythmia (VT, VF, mortality); test: Ouabain induced arrhythmia model in guinea pig; type: in vivo; conditions: for actual incidence of mortality (value in parenthesis): 60 min; for actual incidence of mortality (value in parenthesis) / actual incidence of VF (value in parenthesis) / actual incidence of VT (value in parenthesis): number of animals of the group; for % INCIDENCE OF MORTALITY: mortality at 60 min; for deaths due to conduction block (60 min), actual incidence (value in parenthesis) / deaths due to tachyarrhythmia (60 min), actual incidence (value in parenthesis): number of animals; for % INCIDENCE OF VF / % INCIDENCE OF VT: ouabain 240 μg/kg in three doses, observed one hour; for DEATHS DUE TO CONDUCTION BLOCK (60 MIN) Percentage / DEATHS DUE TO TACHYARRHYTHMIA (60 MIN) Percentage: percentage deaths out of total mortality
Description: Method: Guinea pigs (Dunken Hartley) of either sex weighing between 400 and 500 g were used for the study. The animals were anesthetized with urethane (1.25 g/kg. i.p.). The left common carotid artery and left jugular vein were cannulated for arterial blood pressure monitoring and intravenous access respectively. Lead II electrocardiogram, arterial blood pressure, mean arterial blood pressure (MABP), heart rate were monitored throughout the experiment.
After initial surgical preparations and allowing 30 minutes for the animal to stabilise the first dose of ouabain (90 μg/kg) was administered over a period of one minute. After the interval of thirty minutes, second dose of ouabain (60 μg/kg) was administered over a period of one minute. One minute after this dose, 0.5 ml saline (in control experiments) was administered over a period of one minute. After an interval of 10 minutes a third dose of ouabain (90 μg/kg) was administered over a period of one minute. […] The test compounds were administered to animals in test group in place of saline to evaluate their antiarrhythmic potential. From the ECG recordings, the incidence of VT, VF and mortality were recorded. The doses of ratios of sotalol isomers studied were 0.1, 0.5 and 2.5 mg/kg.
Interpretation of ECG recordings: Minor disturbance in rhythm was not considered while evaluating ventricular tachyarrhythmias. A run of more than 3 ventricular ectopic beats having wide QRS complexes associated with partial haemodynamic collapse was considered as Ventricular Tachycardia (VT). Total morphological irregularity of repetitive complexes for at least six cycles associated with complete haemodynamic collapse was considered as Ventricular Fibrillation (VF). Successful arrhythmia protection was defined as no occurrence of VT and VF from the injection of saline/test drug till the end of the experiment.
Statistics: Chi square test with continuity correction at 95% confidence limit was applied to find out the statistical significance between control and test groups for incidence of VT, VF and mortality. Whenever, any of the value in a cell was less than 5, Fischer's exact probability test was used.
Results: Different ratios of sotalol in the dose range from 0.02 mg/kg to 12.5 mg/kg were studied in individual groups of animals. In all 18 groups were studied and at least 6 animals were used in each group. In control animals ouabain 240 μg/kg in three divided doses induced reproducible ventricular tachyarrhythmias in guinea pigs. It was observed that ventricular arrhythmias appeared after the administration of the third dose. Guinea pigs which responded early i.e. before or within 1 min. of administration of the second dose, were considered early responders and were not included in the study. […] In the study, control experiments were carried out randomly interspersed in test groups. Among the 42 control animals the incidence of VT was 81%, incidence of VF was 71.4% and the incidence of mortality at 60 minutes was 61.9%.

[2] = test system: beta adrenergic blockade, isolated right auricle preparation of rabbit; test: Beta blocking potency (pA2 against isoprenaline) in isolated rabbit right auricle; conditions: isoprenaline chronotropic response, Schild's plot
Procedure: Estimation of the beta blockade of various ratios of d- and l- isomers of sotalol was carried out in the isolated right auricle preparation of rabbit. The spontaneously beating right atrium was dissected and mounted in a 20 ml tissue bath. The resting tension on the atria was set at 1 g. The contractions were recorded using a force displacement transducer. The spontaneous contractions of the right atria were recorded isometrically and the heart rate was obtained as a derived parameter using a ratemeter that gave the output in beats per minute. Six different ratios of d and l isomers were investigated (1:1, 2:1, 3:1, 4:1, 5:1 and 1:0). Dose-response-curves (DRC) for isoprenaline in the isolated atria, using the chronotropic response were determined by cumulative addition of isoprenaline. The pA2 values of each of the ratios were estimated using the classical Schild's plot (Schild, 1957) and the values are shown in Table 1.

[3] = guinea pig, in vivo, listed as 2.5:1 ratio (d:l)

CC(C)NCC(O)c1ccc(NS(C)(=O)=O)cc1 (stereo not drawn) [2.5:1 RATIO, N-[4-[1-hydroxy-2-[(1-methylethyl)amino]ethyl]phenyl] methane sulfonamide]
mortality compared to 2:1 ratio at the same dose ([1]; 0.5 mg/kg): lower | protection against VF ([1]; 0.5 mg/kg): some protection, it was not complete | actual incidence of mortality (value in parenthesis) ([1]; 0.5 mg/kg): (2) | protection against ouabain induced VT ([1]; 0.5 mg/kg, listed as 2.5:1 ratio (d:l)): protection was not complete | % INCIDENCE OF MORTALITY ([1]; 0.5 mg/kg): 33.3% | deaths due to conduction block (60 min), actual incidence (value in parenthesis) ([1]; 0.5 mg/kg): (2) | deaths due to tachyarrhythmia (60 min), actual incidence (value in parenthesis) ([1]; 0.5 mg/kg): (0) | actual incidence of VF (value in parenthesis) ([1]; 0.5 mg/kg): (2) | actual incidence of VT (value in parenthesis) ([1]; 0.5 mg/kg): (2)* | % INCIDENCE OF VF ([1]; 0.5 mg/kg): 33.3% | % INCIDENCE OF VT ([1]; 0.5 mg/kg): 33.3% | DEATHS DUE TO CONDUCTION BLOCK (60 MIN) Percentage ([1]; 0.5 mg/kg): 100.0% | DEATHS DUE TO TACHYARRHYTHMIA (60 MIN) Percentage ([1]; 0.5 mg/kg): 00.0% | protection against mortality ([1]; 2.5 mg/kg): protected significantly | protection from deaths due to tachyarrhythmias ([1]; 2.5 mg/kg): completely protected | protection against arrhythmias (VT and VF) ([1]; 2.5 mg/kg, listed as 2.5:1): completely protects; also recorded: complete protection | % INCIDENCE OF MORTALITY ([1]; 2.5 mg/kg): 16.6% | % INCIDENCE OF MORTALITY ([1]; 2.5 mg/kg, listed as 2.5:1): 16.6% | deaths due to conduction block (60 min), actual incidence (value in parenthesis) ([1]; 2.5 mg/kg): (1) | deaths due to tachyarrhythmia (60 min), actual incidence (value in parenthesis) ([1]; 2.5 mg/kg): (0) | actual incidence of VF (value in parenthesis) ([1]; 2.5 mg/kg): (0)* | actual incidence of VT (value in parenthesis) ([1]; 2.5 mg/kg): (0)* | % INCIDENCE OF VF ([1]; 2.5 mg/kg): 0.0% | % INCIDENCE OF VT ([1]; 2.5 mg/kg): 0.0% | DEATHS DUE TO CONDUCTION BLOCK (60 MIN) Percentage ([1]; 2.5 mg/kg): 100.0% | DEATHS DUE TO TACHYARRHYTHMIA (60 MIN) Percentage ([1]; 2.5 mg/kg): 00.0% | dose at which complete protection against VT was observed [1, 3]: 2.5 mg/kg | dose that completely protected against VF [1, 3]: 2.5 mg/kg | cause of deaths ([1]; no dose stated): due to conduction abnormalities | mortality compared with control groups ([1]; no dose stated): less than that of control groups

CC(C)NCC(O)c1ccc(NS(C)(=O)=O)cc1 (stereo not drawn) [d-SOTALOL, N-[4-[1-hydroxy-2-[(1-methylethyl)amino]ethyl]phenyl] methane sulfonamide]
pA2 Mean ([2]; listed as 1:0): 5.44 | pA2 Mean ([2]; listed as pure d-isomer of sotalol): 5.44 | actual incidence of mortality (value in parenthesis) ([1]; 0.5 mg/kg): (5) | % INCIDENCE OF MORTALITY ([1]; 0.5 mg/kg): 50.0% | deaths due to conduction block (60 min), actual incidence (value in parenthesis) ([1]; 0.5 mg/kg): (1) | deaths due to tachyarrhythmia (60 min), actual incidence (value in parenthesis) ([1]; 0.5 mg/kg): (4) | actual incidence of VF (value in parenthesis) ([1]; 0.5 mg/kg): (7) | actual incidence of VT (value in parenthesis) ([1]; 0.5 mg/kg): (7) | % INCIDENCE OF VF ([1]; 0.5 mg/kg): 70.0% | % INCIDENCE OF VT ([1]; 0.5 mg/kg): 70.0% | DEATHS DUE TO CONDUCTION BLOCK (60 MIN) Percentage ([1]; 0.5 mg/kg): 20.0% | DEATHS DUE TO TACHYARRHYTHMIA (60 MIN) Percentage ([1]; 0.5 mg/kg): 80.0% | actual incidence of mortality (value in parenthesis) ([1]; 2.5 mg/kg): (6) | % INCIDENCE OF MORTALITY ([1]; 2.5 mg/kg): 66.6% | deaths due to conduction block (60 min), actual incidence (value in parenthesis) ([1]; 2.5 mg/kg): (3) | deaths due to tachyarrhythmia (60 min), actual incidence (value in parenthesis) ([1]; 2.5 mg/kg): (3) | actual incidence of VF (value in parenthesis) ([1]; 2.5 mg/kg): (6) | actual incidence of VT (value in parenthesis) ([1]; 2.5 mg/kg): (7) | % INCIDENCE OF VF ([1]; 2.5 mg/kg): 66.6% | % INCIDENCE OF VT ([1]; 2.5 mg/kg): 77.7% | DEATHS DUE TO CONDUCTION BLOCK (60 MIN) Percentage ([1]; 2.5 mg/kg): 50.0% | DEATHS DUE TO TACHYARRHYTHMIA (60 MIN) Percentage ([1]; 2.5 mg/kg): 50.0% | actual incidence of mortality (value in parenthesis) ([1]; 12.5 mg/kg): (6) | % INCIDENCE OF MORTALITY ([1]; 12.5 mg/kg): 100.0% | % INCIDENCE OF MORTALITY ([1]; 12.5 mg/kg, listed as d-Sotalol): 100% | deaths due to conduction block (60 min), actual incidence (value in parenthesis) ([1]; 12.5 mg/kg): (3) | deaths due to tachyarrhythmia (60 min), actual incidence (value in parenthesis) ([1]; 12.5 mg/kg): (3) | actual incidence of VF (value in parenthesis) ([1]; 12.5 mg/kg): (3) | actual incidence of VT (value in parenthesis) ([1]; 12.5 mg/kg): (3) | % INCIDENCE OF VF ([1]; 12.5 mg/kg): 50.0% | % INCIDENCE OF VT ([1]; 12.5 mg/kg): 50.0% | DEATHS DUE TO CONDUCTION BLOCK (60 MIN) Percentage ([1]; 12.5 mg/kg): 50.0% | DEATHS DUE TO TACHYARRHYTHMIA (60 MIN) Percentage ([1]; 12.5 mg/kg): 50.0% | cause of deaths ([1]; doses 2.5 mg/kg and 12.5 mg/kg): equally due to conduction abnormality as well as tachyarrhythmias | protection against ouabain induced VF ([1]; no dose stated): ineffective | protection against ouabain induced VT ([1]; no dose stated): ineffective
